The values below come from patent publication US20070185167A1, “SODIUM SALTS OF 5-[4-[2-(N-METHYL-N-(2-PYRIDYL)AMINO)ETHOXY]BENZYL]THIAZOLIDINE-2,4-DIONE” (SmithKline Beecham p.l.c., priority 2000, published 2007).

For data set [1] the following is noted: especially under humid conditions.
The conditions of data set [2]: 25° C and 75% relative humidity, approximately constant weight. From the text:
For the avoidance of doubt when used herein the terms “non-hygroscopic”, “slightly hygroscopic”, “moderately hygroscopic” and “very hygroscopic” are to have the meanings defined by the above mentioned criteria.

As for `CN(CCOc1ccc(CC2SC(=O)NC2=O)cc1)c1ccccn1.[Na]` (centres unmarked) [Sodium Salt, 5-[4-[2-(N-Methyl-N-(2-pyridyl)amino)ethoxy]benzyl]thiazolidine-2,4-dione, Sodium Salt], the solid state stability result in data set [1] is “good solid state stability”. For the same molecule, the “hygroscopicity classification (% weight gain)” value in data set [2] is “non-hygroscopic (<2%)”.
